Experimental data published in patent US20260250318A1, “COMPOSITIONS AND METHODS FOR CROSSING THE BLOOD BRAIN BARRIER” (VOYAGER THERAPEUTICS, INC., priority 2022, published 2026).

Tests used:
[1] = system: brains, heart, liver, muscle, and DRG of the NHPs; assay: Maturation of TTM-001 and TTM-002 capsids, NGS enrichment in NHP tissues; format: in vivo; details: relative to AAV9 control
In short: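 Variants carry mutations within and flanking the loop IV peptide insert: positions 450–466 were triplet-randomized, while positions 449–466 received low-frequency point mutations. The combined pool went into two NHPs, and each peptide was scored by NGS enrichment ratio against AAV9.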

brain = assay: Matured TTM-001 and TTM-002 variants, NGS enrichment in mouse brain; format: in vivo, mice; details: relative to AAV9 control
[2] = NGS fold-enrichment of matured AAV capsid variants, NHP brain, RNA
[3] = NGS fold-enrichment, DRG of NHPs
[4] = NGS fold-enrichment, RNA, brain of NHPs
[5] = NGS fold-enrichment, heart of NHPs
[6] = NGS fold-enrichment, liver DNA of NHPs
[7] = NGS fold-enrichment, liver RNA of NHPs
[8] = NGS fold-enrichment, muscle of NHPs
[9] = NGS fold-enrichment, brain of mice

Sequence | Fold Enrichment relative to AAV9, Brain (NHP) [1, 2] [fold] | Fold Enrichment relative to AAV9, DRG (NHP) ([1]; NHP DRG) [fold] | Fold Enrichment relative to AAV9, Heart (NHP) ([1]; NHP heart) [fold] | Fold Enrichment relative to AAV9, Liver DNA (NHP) ([1]; NHP liver, DNA) [fold] | Fold Enrichment relative to AAV9, Liver RNA (NHP) ([1]; NHP liver, RNA) [fold] | Fold Enrichment relative to AAV9, Muscle (NHP) ([1]; NHP muscle) [fold] | Fold Enrichment relative to AAV9, Brain (Mouse) (brain; mouse brain) [fold] | also measured
KTINGSGSPHSKARDWQT | 58.216 | 0.000 | 0.005 | 0.259 | 0.800 | 0.000 | 120.704 | 
KTINGSGSPHSKARGEQT | 54.207 | 0.025 | 0.006 | 0.327 | 0.309 | 0.005 | 128.098 | 
KTINGSGSPHSKARGLQT | 52.275 | 0.000 | 0.000 | 1.425 | 1.235 | 0.036 | 169.881 | 
KTINGSGSPHSKASPRQT | 50.227 | 0.088 | 0.005 | 0.530 | 1.761 | 0.068 | 67.241 | 
KTINGSGSPHSKGHWQQT |  |  |  |  |  |  |  | Fold Enrichment relative to AAV9, Brain (NHP) ([1]; NGS fold-enrichment of RNA, NHP brain): 81.434 fold; Fold Enrichment relative to AAV9, DRG (NHP) [1, 3]: 0.000 fold; Fold Enrichment relative to AAV9, DRG (NHP) ([1]; NGS fold-enrichment, NHP DRG): 0.000 fold; Fold Enrichment relative to AAV9, Heart (NHP) ([1]; NGS fold-enrichment, NHP heart): 0.000 fold; Fold Enrichment relative to AAV9, Liver DNA (NHP) ([1]; NGS fold-enrichment, NHP liver DNA): 1.011 fold; Fold Enrichment relative to AAV9, Liver RNA (NHP) ([1]; NGS fold-enrichment, NHP liver RNA): 0.000 fold; Fold Enrichment relative to AAV9, Muscle (NHP) ([1]; NGS fold-enrichment, NHP muscle): 0.000 fold; Fold Enrichment relative to AAV9, Brain (NHP) [1, 4]: 81.434 fold; Fold Enrichment relative to AAV9, Heart (NHP) [1, 5]: 0.000 fold; Fold Enrichment relative to AAV9, Liver DNA (NHP) [1, 6]: 1.011 fold; Fold Enrichment relative to AAV9, Liver RNA (NHP) [1, 7]: 0.000 fold; Fold Enrichment relative to AAV9, Muscle (NHP) [1, 8]: 0.000 fold; Fold Enrichment relative to AAV9, Brain (Mouse) (brain; [9]): 65.252 fold; Fold Enrichment relative to AAV9, Brain (Mouse) (brain; NGS fold-enrichment, mouse brain): 65.252 fold
KTINGSGSPHSKGQNPPT |  |  |  |  |  |  |  | Fold Enrichment relative to AAV9, DRG (NHP) [1, 3]: 0.000 fold; Fold Enrichment relative to AAV9, Brain (NHP) [1, 4]: 72.339 fold; Fold Enrichment relative to AAV9, Heart (NHP) [1, 5]: 0.206 fold; Fold Enrichment relative to AAV9, Liver DNA (NHP) [1, 6]: 0.041 fold; Fold Enrichment relative to AAV9, Liver RNA (NHP) [1, 7]: 0.000 fold; Fold Enrichment relative to AAV9, Muscle (NHP) [1, 8]: 0.000 fold; Fold Enrichment relative to AAV9, Brain (Mouse) (brain; [9]): 134.808 fold
KTINGSGSPHSKLKSQQT | 50.368 | 0.000 | 0.296 | 1.096 | 1.796 | 0.000 | 95.240 | 
KTINGSGSPHSKLQKQQT | 52.144 | 0.615 | 0.477 | 0.429 | 1.113 | 1.071 | 61.833 | 
KTINGSGSPHSKNQWQQT | 50.800 | 0.000 | 0.044 | 0.324 | 0.111 | 0.047 | 65.506 | 
KTINGSGSPHSKNRDQQT | 51.830 | 0.000 | 0.008 | 0.138 | 0.480 | 0.000 | 100.300 | 
